These are literature values, as cited in patent US20080269347A1, “EPINEPHRINE FORMULATIONS” (Azopharma, Inc., priority 2006, published 2008).

Where a name gives a salt, the structure may show the parent alone. Read-outs that look alike come from different tables or passages of the source.

Consider `CNC[C@H](O)c1ccc(O)c(O)c1` [Epinephrine hydrochloride], for which the “pH at which unstable” value (in dextrose (5% in water)) is reported as “above 5.5”. For the same compound, for the setting “intravenous admixture, pH raised above 5.5 to about 6”, the “stability when mixed with lidocaine hydrochloride” value is recorded as “begin to deteriorate within several hours”. Further, the decomposition (pH 2.5, in 200 days at 30° C.) is 5% and the decomposition (pH 4.5, in 200 days at 30° C.) is reported as 10%.
